In patent publication US7037905B2, “Pharmaceutical use of boronic acids and esters thereof” (Novo Nordisk A/S, priority 2002, dated 2006):

What follows are molecules tested against T1, HSL (Homo sapiens, UniProt Q05469) (assay: TEST 3180.2 HSL: percent inhibition at 10 μM, 3H-Triolein lipid emulsion). Details: 10 µM.
T1 sequence (Q05469 1-1076): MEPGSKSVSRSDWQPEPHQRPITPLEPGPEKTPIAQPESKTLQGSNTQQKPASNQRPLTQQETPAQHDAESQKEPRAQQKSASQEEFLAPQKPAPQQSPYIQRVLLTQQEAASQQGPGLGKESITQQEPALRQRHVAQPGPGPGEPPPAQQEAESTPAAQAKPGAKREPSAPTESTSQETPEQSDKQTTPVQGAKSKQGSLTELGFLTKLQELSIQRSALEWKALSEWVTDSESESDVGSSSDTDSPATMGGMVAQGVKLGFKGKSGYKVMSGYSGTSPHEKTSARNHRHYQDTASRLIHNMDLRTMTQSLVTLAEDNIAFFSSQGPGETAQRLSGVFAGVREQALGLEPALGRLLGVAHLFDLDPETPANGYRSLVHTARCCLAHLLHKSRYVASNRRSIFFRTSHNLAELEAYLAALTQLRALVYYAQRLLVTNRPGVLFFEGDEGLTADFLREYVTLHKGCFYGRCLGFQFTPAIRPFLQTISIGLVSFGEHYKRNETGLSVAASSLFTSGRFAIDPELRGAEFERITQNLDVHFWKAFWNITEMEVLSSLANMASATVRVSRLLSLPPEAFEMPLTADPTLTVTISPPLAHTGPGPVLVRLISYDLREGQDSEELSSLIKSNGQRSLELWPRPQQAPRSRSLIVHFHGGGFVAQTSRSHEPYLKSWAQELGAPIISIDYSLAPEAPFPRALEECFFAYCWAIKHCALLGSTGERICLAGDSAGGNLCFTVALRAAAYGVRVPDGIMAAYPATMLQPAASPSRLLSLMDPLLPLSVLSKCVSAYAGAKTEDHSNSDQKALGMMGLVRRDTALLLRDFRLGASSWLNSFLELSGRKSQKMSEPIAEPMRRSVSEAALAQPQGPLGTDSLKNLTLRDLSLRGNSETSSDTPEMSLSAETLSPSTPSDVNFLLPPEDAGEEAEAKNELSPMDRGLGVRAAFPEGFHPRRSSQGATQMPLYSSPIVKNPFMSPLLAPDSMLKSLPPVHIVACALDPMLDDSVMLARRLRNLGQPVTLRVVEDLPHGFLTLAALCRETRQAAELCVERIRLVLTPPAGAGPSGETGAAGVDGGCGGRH
Assay type: biochemical

| Molecule | TEST 3180.2 HSL Activity (%) |
| --- | --- |
| 3-Fluoro-4-phenylboronic acid [Example 72] | 97 |

Same assay, conditions: 10 μM concentration; percent activity relative to an un-inhibited sample; 30 min preincubation, 30 min reaction at 25° C.

| TEST 3180.2 HSL Activity (%) | Molecule |
| --- | --- |
| 93 | OB(O)c1ccc(OCc2ccccc2)c(F)c1 [Example 62, 3-FLUORO-4-BENZYLOXYPHENYL)BORONIC ACID] |

Same assay, conditions: 10 μM concentration; percent activity relative to an un-inhibited sample; 30 min preincubation, 30 min reaction at 25° C.; read-out: TEST 3180.2 HSL Activity (%)

| Molecule | activity at 10 µM [%] |
| --- | --- |
| OB(O)c1ccc(OCc2ccccc2)cc1 [Example 33, 4-Benzyloxyphenylboronic acid] | 85 |
| CC1(C)COB(c2cc(F)cc(F)c2)OC1 [Example 35, 2-(3,5-DIFLUOROPHENYL)-5,5-DIMETHYL-1,3,2-DIOXABORINANE] | 38 |
| CC1(C)COB(c2ccc(Br)cc2)OC1 [Example 37, 2-(4-BROMOPHENYL)-5,5-DIMETHYL-1,3,2-DIOXABORINANE] | 83 |
| CC1(C)COB(c2ccccc2Cl)OC1 [Example 38, 2-(2-chloroPHENYL)-5,5-DIMETHYL-1,3,2-DIOXABORINANE] | 89 |
| CC1(C)COB(c2ccccc2C#N)OC1 [Example 39, 2-(5,5-Dimethyl-[1,3,2]dioxaborinan-2-yl)-benzonitrile] | 97 |
| CC1(C)COB(c2ccccc2F)OC1 [Example 40, 2-(2-Fluoro-phenyl)-5,5-dimethyl-[1,3,2]dioxaborinane] | 68 |
| CCOC(=O)c1ccccc1B1OCC(C)(C)CO1 [Example 42, 2-(5,5-Dimethyl-[1,3,2]dioxaborinan-2-yl)-benzoic acid ethyl ester] | 93 |
| COc1ccc(Cl)cc1B(O)O [Example 43, 5-CHLORO-2-METHOXYPHENYLBORONIC ACID] | 36 |
| CCOc1cccc(B(O)O)c1 [Example 45, 3-Ethoxyphenylboronic acid] | 90 |
| OB(O)c1cccc(-c2ccccc2)c1 [Example 46, 3-phenylphenylboronic acid] | 96 |
| OB(O)c1ccc(F)cc1 [Example 47, 4-fluorophenylboronic acid] | 65 |
| OB(O)c1ccccc1Br [Example 48, 2-Bromophenylboronic acid] | 81 |
| OB(O)c1cccc(Br)c1 [Example 49, 3-Bromophenylboronic acid] | 33 |
| OB(O)c1c(Cl)cccc1Cl [Example 50, 2,6-Dichlorophenylboronic acid] | 88 |
| OB(O)c1ccccc1Cl [Example 52, 2-Chlorophenylboronic acid] | 86 |
| CCCCCc1ccc(B(O)O)c(F)c1F [Example 61, 2,3-DIFLUORO-4-PENTYLPHENYLBORONIC ACID] | 85 |

Further lines, results first:

| activity at 10 µM [%] | Molecule |
| --- | --- |
| 71 | OB(O)c1cc(Br)cc(Br)c1 [Example 44, 3,5-Dibromophenylboronic acid] |
| 64 | Cc1cccc(B(O)O)c1 [Example 51, 3-Methylphenylboronic acid] |
| 34 | OB(O)c1cccc(Cl)c1 [Example 53, 3-Chlorophenylboronic acid] |
| 27 | OB(O)c1cccc(OC(F)(F)F)c1 [Example 54, 3-(TRIFLUOROMETHOXY)BENZENEBORONIC ACID] |
| 21 | OB(O)c1cccc(C(F)(F)F)c1 [Example 55, 3-Trifluoromethylphenylboronic acid] |
| 89 | OB(O)c1cc(C(F)(F)F)cc(C(F)(F)F)c1 [Example 56, 3,5-Bis(Trifluoromethyl)phenylboronic acid] |
| 46 | OB(O)c1cc(Cl)cc(Cl)c1 [Example 57, 3,5-Dichlorophenylboronic acid] |
| 35 | OB(O)c1ccc(F)c(Cl)c1 [Example 58, 3-Chloro-4-fluorophenylboronic acid] |
| 25 | OB(O)c1cc(F)cc(F)c1 [Example 59, 3,5-Difluorophenylboronic acid] |
| 47 | OB(O)c1cccc(F)c1 [Example 60, 3-Fluorophenylboronic acid] |
| 26 | OB(O)c1cc(F)c(F)c(F)c1 [Example 63, 3,4,5-Trifluorophenylboronic acid] |
